The source of these data is patent publication US12594228B2, “Composition for hair protection or hair strengthening” (AMOREPACIFIC CORPORATION, priority 2024, dated 2026).

Assay [1] in a line: Tensile strength of bleached hair tresses treated with test substance (MTT175). Details: species or system human. The conditions noted are these: test substance 0.01 wt % in purified water and ethanol (80 wt %), about 30 minutes; FIG. 4, FIG. 5. The procedure: The compositions in Table 2 above were applied to human hair to compare tensile strength.
(§1) Specifically, bleached hair tresses (1 g, manufactured by Beaulax) were prepared. The hair tresses were washed using a basic shampoo without conditioning function, rinsed for 1 minute, and dried for 2 minutes. The dried hair tresses (1 g) were immersed in 100 g of a solution in which the test substance (the mixture of Example 1 or the mixture of Comparative Example 1 in Table 2 above) was dissolved at 0.1 wt % (wherein the solution is a solution in which the test substance (0.1 wt %) is dissolved in purified water (remaining amount) for about 30 minutes. The immersed hair tresses were rinsed in running water for 1 minute and then naturally dried for more than 12 hours. Thirty hair strands were randomly selected from each hair tresses treated with the test substance. Thirty hair strands were randomly selected from the control hair tresses that were not treated with the test substance. The tensile strength of each selected hair was measured using an MTT175 (manufactured by DiaStron) device.
The tensile strength was compared by applying the test substance (the above 5 types of tripeptides) to the hair using the same method as in ‘Experimental Example 2. (1) Measurement of tensile strength’.
as §1, with “(synthesized tripeptide)” for “(the mixture of Example 1 or the mixture of Comparative Example 1 in Table 2 above)”, “0.01” for “0.1”, “(0.01” for “(0.1”, “(residue) and ethanol (80 wt %))” for “(remaining amount)”
Specifically, the tripeptide was synthesized using the same method as the peptide synthesis method of ‘Experimental Example 3’ above, but palmitic acid was added to the N-terminus of the peptide (reagents: HBTU (Hexafluorophosphate Benzotriazole), NMM (N-Methylmorpholine), DMF (Dimethylformamide), 1 hour at room temperature, concentration 0.3 M), and a tripeptide with palmitic acid covalently bonded to the N-terminus (i.e., palmitoyl tripeptide) was synthesized. After that, the test substance (tripeptide with palmitic acid covalently bonded to the N-terminus) was applied to the hair and the tensile strength was compared using the same method as in ‘Experimental Example 3. (1) Measurement of tensile strength’.

For assay [2], the system named is hair structural proteins. As to the kind of experiment: Denaturation enthalpy of hair structural proteins by DSC. The conditions noted are these: bleached hair, test substance 0.01 wt % in purified water and ethanol (80 wt %), 30 minutes; FIG. 3. The method, then:
The denaturation enthalpy of hair structural proteins was compared according to whether or not the test substance was treated using a DSC (Differential Scanning calorimetry) analyzer. DSC is used as an analysis method to confirm the stability of hair structural proteins. Damage to the hair reduces the stability of hair structural proteins and decreases the enthalpy of denaturation. Specifically, bleached hair tresses (1 g. manufactured by Beaulax) were prepared. The hair tresses were washed using a basic shampoo without a conditioning function, rinsed for 1 minute, and dried for 2 minutes. The dried hair tresses (1 g) were immersed in 100 g of a solution in which the test substance (mixture of Example 1 in Table 2 above) was dissolved at 0.01 wt % (at this time, the solution is a solution in which the mixture of Example 1 (0.01 wt %) is dissolved in purified water (residue) and ethanol (80 wt %)) for 30 minutes. The immersed hair tresses were rinsed in running water for 1 minute and then naturally dried for more than 12 hours. Each treated hair tress was cut into 1 mm lengths, placed in an aluminum high-pressure capsule with 3-5 mg of the cut hair tress and 6-15 mg of distilled water, and combined. […] The denaturation enthalpies of the prepared DSC samples were measured using a DSC (Discovery DSC 250, TA Instruments) device (50-190 degrees, 10 degrees/min).
The denaturation enthalpy was measured by the same method as in ‘Experimental Example 2. (2) Measurement of denaturation enthalpy’, but the denaturation enthalpy was compared by applying applied CWK tripeptide as a test substance to hair.
The denaturation enthalpy was measured by the same method as in ‘Experimental Example 2. (2) Measurement of denaturation enthalpy’, but the denaturation enthalpy was compared by applying a tripeptide with palmitic acid covalently bonded to the N-terminus (i.e. palmitoyl tripeptide) to hair as the test substance.
Background: Differential scanning calorimetry records heat flow against a reference as temperature is scanned.

The nature of assay [3]: Elasticity (horizontal resistance) of heat-treated hair simulating eyebrows. More on the design: species or system human. The conditions noted are these: hair heat-treated at 160° C. 20 times, then 0.01 wt % test substance in purified water, about 30 minutes; FIG. 11. The method, then:
(§2) Specifically, since it is difficult to obtain eyebrows to be used for evaluation directly from a living body, human hair corresponding to the thickness of eyebrows was selected through Fibra.one (manufactured by DiaStron). The length was prepared to a level that can be applied to a machine measuring tensile strength. Heat-treated hair was prepared by applying pressure by hand at 160° C. 20 times with a hair straightener to the prepared human hair tresses. Hair that had not been heat-treated was prepared as a control group (untreated hair in FIGS. 9 and 11). In Experimental Example 6, the untreated hair was not treated with the test substance.
(§3) After that, the heat-treated hair tresses were treated with the test substance, KCV (KCV-treated hair in FIGS. 9 and 11). Specifically, the prepared tresses (1 g, manufactured by Beaulax) were washed using a basic cleanser without conditioning function, rinsed for 1 minute, and dried for 2 minutes. […]
The elasticity of KCV-treated hair, heat-damaged hair, and untreated hair was compared. Elasticity was defined as the horizontal resistance of hair, and elasticity was measured through each step of [Method for Measuring Hair Elasticity] below (see FIG. 10). […]

Assay [4] can be described thus: Tensile strength of heat-treated hair simulating eyebrows (Fibra.one). Details: species or system human. The conditions noted are these: hair heat-treated at 160° C. 20 times, then 0.01 wt % test substance in purified water, about 30 minutes; FIG. 9. The method, then: as §2, §3
Specifically, 30 hair strands were randomly selected from each tress (KCV-treated hair) treated with the test substance. […] The tensile strength of each selected hair was measured using a Fibra.one (manufactured by DiaStron).

Assay [5] in a line: Penetration and binding in hair by confocal microscopy. The conditions noted are these: fluorescent substance applied to hair, FIG. 6, FIG. 7. An excerpt:
A green fluorescent substance (FITC; Fluorescein isothiocyanate) was conjugated to palmitoyl-CWK, a tripeptide (i.e., palmitoyl tripeptide) covalently bound to palmitic acid at the N-terminus (fluorescent labeling) and applied to hair. After that, the change in hair structure that affects the increase in hair tensile strength was confirmed by comparing the colored areas using a confocal microscopy.
Meanwhile, for comparison of hair penetration routes, the water-soluble fluorescent substance 5-(4-Dimethylaminobenzylidene) rhodanine was applied to the hair, and the colored area (indicated in gray in FIG. 7) was confirmed using a confocal microscope.

As for CKF, in assay [1], the “tensile strength of hair compared to control bleached hair tresses” value is listed as “significantly increased”. With palmitoyl-CKF [pal-CKF], the “tensile strength of hair compared to control bleached hair tresses” value in assay [1] is listed as “significantly increased”. In addition, in assay [2], the “denaturation enthalpy of hair structural protein compared to control hair” value (“denaturation enthalpy … compared to control hair” for short) is on record as “significantly increased”. For palmitoyl-CWK [pal-CWK], in assay [1], the “tensile strength of hair compared to control bleached hair tresses” value is “significantly increased”. Further, in assay [2], the “denaturation enthalpy … compared to control hair” value is reported as “significantly increased”. Take PCP [reference compound]: the “tensile strength of hair compared to control bleached hair tresses” value in assay [1] was “not significant”.

Turning to palmitoyl-KCV [pal-KCV], the “tensile strength of hair compared to control bleached hair tresses” value in assay [1] was “significantly increased”. Besides, in assay [2], the “denaturation enthalpy … compared to control hair” value is “significantly increased”. On to KCV, for which the “elasticity compared to heat-damaged hair tresses” value in assay [3] is “significantly increased”. Also, in assay [1], the “tensile strength of hair compared to control bleached hair tresses” value is on record as “significantly increased”. Moreover, the “tensile strength (break load) per area compared to heat-damaged hair tresses” value in assay [4] is “significantly increased”. For CWK, in assay [1], the “tensile strength of hair compared to control bleached hair tresses” value was “significantly increased”. For the same compound, the “denaturation enthalpy … compared to control hair” value in assay [2] is “significantly increased”.

Turning to KCL, in assay [1], the “tensile strength of hair compared to control bleached hair tresses” value is recorded as “significantly increased”. As for `CN(C)c1ccc(C=C2SC(=S)NC2=O)cc1` [5-(4-Dimethylaminobenzylidene) rhodanine], the “penetration and binding in hair (colored areas)” value in assay [5] was “barely remained in the cuticle layer on the hair surface and did not fill the lost area of CMC inside the hair”.
